Measured values reported in patent US5834436A, “Membrane-permeant second messengers” (priority 1995, dated 1998).
One block for each compound: values may come before it.

Columns and labels:
[1] = biological target: cAMP-dependent kinase type I (FICRhR) (Bos taurus, UniProt P00514); test: biochemical
Description: When PKA is doubly labeled with fluorescein on its catalytic subunits and rhodamine on its regulatory subunits to produce FICRhR, fluorescence energy transfer from the fluorescein to rhodamine occurs in the holoenzyme complex but is disrupted upon activation and dissociation of the subunits. The change in the ratio of fluorescein to rhodamine emissions parallels the increase in kinase activity and can be nondestructively imaged in single cells. REF-52 fibroblasts were microinjected with FICRhR and emission ratio images recorded at room temperature as previously described (27).

[2] = biological target: cAMP-dependent protein kinase (PKA) (Bos taurus, UniProt P00514); test: cell-based; type: cell-based
T84 cells = test: cells; type: cell-based; conditions: for EC50: Homo sapiens, T84, 0.2 h, ISC 12 min after addition, read-out: EC50 for Cl- secretion
Description: A convenient test system is the intestinal cell line T84, in which chloride secretion can be continuously monitored by mounting confluent monolayers of cells in Ussing chambers (42).

[3] = system: angelfish (Pterophyllum scalare) melanophores; test: Pigment dispersion in angelfish melanophores on isolated scales (FIG. 3); type: cell-based; conditions: for reversibility of dispersion (in words): removal of extracellular compound and epinephrine
Experimental: Melanophores permit a visual single-cell assay for the ability of cAMP analogs to enter cells and mimic cAMP actions. The melanophores were isolated on angelfish scales and the epidermis was stripped off. […] Dispersion was just detectable at 1 μM and half-maximal near 10 μM (FIG. 3A). […] The preceding examples are summarized in (64).

REF-52 fibroblasts = test: Cytosolic free Ca2+ imaging (fura-2) in single REF-52 fibroblasts (FIG. 6); type: cell-based
Experimental: The best-established biological effect of IP3 is to release Ca^2+ from internal stores (26), so IP3 /PM (5a, R=Et, R'=H) was tested by imaging cytosolic free Ca^2+ levels in single REF-52 fibroblasts using standard methodology (58). Cells were loaded with the Ca^2+ -indicator fura-2 and viewed by fluorescence excitation ratioing. IP3 /PM (40 μM) was applied extracellularly while monitoring cytosolic Ca^2+ concentrations.

1321N1 astrocytoma cells = test: Cytosolic free Ca2+ imaging (fura-2) in 1321N1 astrocytoma cells (FIGS. 7-9); type: cell-based
Experimental: Biological tests on 1321N1 astrocytoma cells were performed similarly to the tests on REF-52 cells (71). The concentration of Cytosolic free Ca^2+ (ordinate, in units of […]) in fura-2-loaded 1321N1 astrocytoma cells is shown as a function of time (abscissa, in units of seconds). At the dotted vertical line labeled 1, 20 μM inositol-1,4,5-triphosphate propionyloxymethyl ester (5a, R=Et, R'=H) was added. […] Subsequently the cells could respond to carbachol (200 μM, delivered at the dotted vertical line labeled 2), a drug that stimulates the endogenous generation of inositol-1,4,5-triphosphate. However, the response to carbachol is depressed by the prior treatment with the inositol-1,4,5-triphosphate propionyloxymethyl ester. Likewise the Ca^2+ response to thapsigargin (100 nM, delivered at the dotted vertical line labeled 3), another drug that releases stored Ca^2+, is depressed.
A test similar to the one shown in FIG. 7 was conducted except that the medium lacked extracellular Ca^2+ and a dose of 60 μM inositol-1,4,5-triphosphate propionyloxymethyl ester was added at the dotted vertical line labeled 1. […] Because no extracellular Ca^2+ was present, this response must have represented release from intracellular Ca^2+ stores. […] The much greater degree of inhibition of the carbachol response compared to the previous example (FIG. 7) is due to the higher dose of the inositol-1,4,5-triphosphate propionyloxymethyl ester and the absence of extracellular Ca^2+, which reduces refilling of Ca^2+ stores.
In a further example, the same test as set forth above was conducted with astrocytoma cells, except that 2 μM inositol-1,4,5-triphosphate butyryloxymethyl ester (5a, R=Pr, R'=H) was used instead of the propionyloxymethyl ester.

[4] = 20 μM, extracellular Ca2+ present, FIG. 7
[5] = 60 μM, no extracellular Ca2+, FIG. 8

Chain of cAMP-dependent kinase type I (FICRhR) (P00514 whole entry): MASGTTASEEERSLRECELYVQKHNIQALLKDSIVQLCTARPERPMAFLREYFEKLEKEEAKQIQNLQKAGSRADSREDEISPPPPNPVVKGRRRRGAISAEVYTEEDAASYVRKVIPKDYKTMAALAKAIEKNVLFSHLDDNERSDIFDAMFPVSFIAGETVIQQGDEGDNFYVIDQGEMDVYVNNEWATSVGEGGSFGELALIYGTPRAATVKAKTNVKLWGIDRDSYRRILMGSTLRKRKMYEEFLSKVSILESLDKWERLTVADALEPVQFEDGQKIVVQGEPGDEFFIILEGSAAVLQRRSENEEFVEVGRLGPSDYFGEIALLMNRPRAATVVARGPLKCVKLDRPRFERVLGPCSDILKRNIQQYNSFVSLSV

Compound: CCCC(=O)Nc1ncnc2c1ncn2[C@@H]1O[C@@H]2COP(=O)(OCOC(C)=O)O[C@H]2[C@H]1OC(=O)CCC (some centres unmarked) [Bt2 cAMP/AM, N^6,O^2 '-Dibutyryl Adenosine 3',5'-cyclic Monophosphate Acetoxymethyl Ester]
separation of the FICRhR subunits in vitro (in words) ([1]; 1 μM): no separation of the subunits
activation at 10 µM ([1]; 10 μM (printed)): 0%
time to maximal change in fluorescence ratio ([2]; 10 μM (highest dose), added extracellularly, room temperature): ≤ 15 min
activation at 1 µM ([2]; REF52, 1 μM (intermediate dose), read-out: plateau of fluorescence ratio change (% of the maximal change)): > 50%
onset of separation of regulatory and catalytic subunit of FICRhR after addition ([2]; extracellular addition): roughly 2 min
time to maximum ISC (T84 cells; 3 μM, serosal bathing solution): 20 min
increase in potency by acetoxymethyl group (vs Bt2 cAMP) (T84 cells; Cl- secretion): 200 fold
EC50 (T84 cells): 2 µM
kinetics of activation, ester vs Bt2 cAMP (in words) (T84 cells; T84 cells): essentially indistinguishable kinetics of activation
ISC response at other concentrations (in words) (T84 cells; relative to 3 μM): Higher concentrations of the derivative caused faster but not significantly greater responses, whereas lower concentrations reached lower maximum ISC values
pigment dispersion (in words) ([3]; 100 μM, extracellular): essentially complete dispersal
reversibility of dispersion (in words) ([3]; 100 μM): easily reversed
onset of dispersion relative to 100 μM (in words) ([3]; 1 mM): slightly faster onset of action
reversibility of dispersion (in words) ([3]; 1 mM): could not be readily reversed
minimal effective concentration ([3]; Pterophyllum scalare, Melanophore, read-out: concentration at which dispersion was just detectable): 1 µM
EC50 ([3]; Pterophyllum scalare, Melanophore, read-out: concentration for half-maximal dispersion): ~10 µM
increase in potency by AM ester group (vs Bt2 cAMP) ([3]; melanophore dispersion): more than 1000

Compound: CCC(=O)OCOP(=O)(OCOC(=O)CC)O[C@@H]1[C@H](O)[C@H](O)[C@@H](OP(=O)(OCOC(=O)CC)OCOC(=O)CC)[C@H](OP(=O)(OCOC(=O)CC)OCOC(=O)CC)[C@H]1O [IP3 /PM, D-myo-inositol-1,4,5-triphosphate propionyloxymethyl ester]
cytosolic Ca2+ concentration after addition (in words) (REF-52 fibroblasts; 40 μM, extracellular): increased rapidly
effect of subsequent vasopressin (in words) (REF-52 fibroblasts; after 40 μM IP3/PM): much less effect than normal
Ca2+ response to thapsigargin (100 nM) after treatment (in words) (1321N1 astrocytoma cells; [4]): depressed
delay of cytosolic Ca2+ elevation (1321N1 astrocytoma cells; [4]): about 100 second
elevation of cytosolic Ca2+ (in words) (1321N1 astrocytoma cells; [4]): sizable elevation of cytosolic Ca^2+
response to carbachol (200 μM) after treatment (in words) (1321N1 astrocytoma cells; [4]): depressed
delay of cytosolic Ca2+ elevation (1321N1 astrocytoma cells; [5]): ~50 s
elevation of cytosolic Ca2+ (in words) (1321N1 astrocytoma cells; [5]): sizable elevation of cytosolic Ca^2+
response to carbachol (200 μM) after treatment (in words) (1321N1 astrocytoma cells; [5]): greatly depressed
Ca2+ release from internal stores (in words) (1321N1 astrocytoma cells; summary, intact REF-52 fibroblasts and astrocytoma cells): released Ca^2+ from internal stores

Compound: Nc1ncnc2c1nc(Sc1ccc(Cl)cc1)n2[C@@H]1O[C@@H]2COP(=O)(O)O[C@H]2[C@H]1O [Compound 8-pCPT-cAMP, 8-para-chlorophenylthio (cCPT) cAMP, reference compound]
EC50 (T84 cells): 100 µM

Compound: D-myo-inositol-1,4,5-triphosphate butyryloxymethyl ester [IP3 /BM]
potency relative to propionyloxymethyl ester (in words) (1321N1 astrocytoma cells; 2 μM, FIG. 9): somewhat more potent
rate of effects relative to propionyloxymethyl ester (in words) (1321N1 astrocytoma cells; 2 μM, FIG. 9): slower to appear and decay

Now from value to compound, other results behind:

activation at 10 µM ([1]; 10 μM (printed)): 16%
potency relative to cAMP ([1]; in vitro, FICRhR): roughly 1/100
activation at 10 µM ([1]; second Bt2 cAMP column, 10 μM printed): 61%
concentration required for PKA activation ([2]; extracellular application): 1 mM
EC50 (T84 cells): 400 µM
Compound: CCCC(=O)Nc1ncnc2c1ncn2[C@@H]1O[C@@H]2COP(=O)(O)O[C@H]2[C@H]1OC(=O)CCC [Bt2 cAMP, N^6,O^2 '-dibutyryl cAMP, reference compound]
delay and time course of PKA activation relative to Bt2 cAMP/AM (in words) ([2]; 1 mM, FIG. 1 Graph B): Much the same delay and overall time course
pigment dispersion (in words) ([3]; 1 mM): unable to cause any detectable dispersion

EC50 (T84 cells): 1500 µM
Compound: Nc1ncnc2c1nc(Br)n2[C@@H]1O[C@@H]2COP(=O)(O)O[C@H]2[C@H]1O [Compound 8-Br-cAMP, 8-bromo-cAMP, reference compound]
